Source: paper PMC10461229 (Journal of Medicinal Chemistry, 2023)
Read-outs that look alike come from different tables or passages of the source.

Columns and labels:
Mtb katG^FS = format: cell-based, Mycobacterium tuberculosis
Caco-2 cells = conditions: membrane integrity control, 5 μM; cited from earlier work
Calu-3 cells = conditions: for Calu-3 LD50: 72 h, CellTiter-Glo, 50% decrease in cellular ATP, IMD salts; for Therapeutic index, LD50 in Calu-3 / MABA IC50: 72 h treatment, CTG assay
[1] = tested on: wild-type (WT) Mtb Erdman; assay: microbe, parasite or virus in culture; format: cell-based, Mycobacterium tuberculosis; conditions: read-out: MABA mean IC50 ± SD
HEK 293 = conditions: for HEK 293 LD50: 48 h, MTT; for Therapeutic index, LD50 in HEK 293 / MABA IC50: 48 h treatment, MTT assay
[2] = tested on: murine RAW 264.7 macrophages; assay: Cytotoxicity assay on murine macrophages; format: cell-based, mouse; conditions: 5 days, total cell number vs DMSO 1%
Description: Mouse macrophage RAW 264.7 cells (ATCC # TIB-71) were maintained in RPMI-1640 + GlutaMAX containing 10% heat-inactivated fetal bovine serum (FBS, 10270106, Gibco). Macrophages were harvested using Versene (15040033, LifeTechnologies).
For assay plate preparation, the lead compounds were diluted in DMSO (Sigma-Aldrich) to 10 mg/mL and dispensed in Echo-qualified 384-well low dead volume source plates using the Echo 550 Series Liquid Handler (Labcyte). The compounds were transferred to 384-well clear-bottom polystyrene assay plates (781091, Greiner Bio-One) using acoustic liquid handling technology. All samples were backfilled with DMSO.
The cellular suspension (50 μL containing 20,000 cells) was added to the 384-well assay plate and incubated for 5 days at 37 °C, 5% CO2. Macrophages were then stained with SYTO 60 dye (S11342, Molecular probes), followed by image acquisition and data analysis. Confocal images were recorded on an automated high-content fluorescence microscope (InCell 6500, Cytiva). A series of four pictures of each well were taken, and each image was then analyzed using the Columbus system to infer the total number of cells. Dose–response plots were generated for each compound using GraphPad Prism software.

Mtb Erdman = format: cell-based, Mycobacterium tuberculosis
BEAS-2B = conditions: for BEAS-2B LD50: 48 h, MTT; for Therapeutic index, LD50 in BEAS-2B / MABA IC50: 48 h treatment, MTT assay
[3] = tested on: H37Rv-GFP Mtb in murine RAW 264.7 macrophages; format: cell-based, Mycobacterium tuberculosis
Mtb biofilm formation = assay: microbe, parasite or virus in culture; format: cell-based; conditions: Mycobacterium tuberculosis, 504 h, read-out: Biofilm inhibition IC50
IMR-90 = conditions: for IMR-90 LD50: 48 h, MTT
CYP2C9 = CYP2C9 (Homo sapiens, UniProt P11712); assay: CYP2C9 inhibition in human liver microsomes; conditions: for % 4 OH-diclofenac activity: HLM
Chain of CYP2C9 (P11712 whole entry): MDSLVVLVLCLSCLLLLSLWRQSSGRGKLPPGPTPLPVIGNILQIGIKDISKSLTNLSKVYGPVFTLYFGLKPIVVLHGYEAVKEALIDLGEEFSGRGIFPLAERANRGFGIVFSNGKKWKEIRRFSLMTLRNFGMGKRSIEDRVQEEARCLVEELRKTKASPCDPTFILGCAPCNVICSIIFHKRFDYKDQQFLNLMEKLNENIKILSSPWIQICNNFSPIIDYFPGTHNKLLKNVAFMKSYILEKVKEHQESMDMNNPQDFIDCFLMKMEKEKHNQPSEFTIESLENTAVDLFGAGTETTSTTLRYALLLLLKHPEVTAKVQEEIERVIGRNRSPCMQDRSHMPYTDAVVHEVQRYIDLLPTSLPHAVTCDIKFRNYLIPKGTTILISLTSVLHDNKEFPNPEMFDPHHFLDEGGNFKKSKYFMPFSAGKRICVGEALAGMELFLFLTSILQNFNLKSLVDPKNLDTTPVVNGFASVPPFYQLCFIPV

in vitro = conditions: human, Caco-2, pH 7.4
CYP3A4 = biological target: T1, CYP3A4 (Homo sapiens, UniProt P08684); assay: CYP3A4 inhibition in human liver microsomes; format: in vitro ADME; conditions: HLM
T1 construct: from tissue; host or cells: human liver microsomes
T1 sequence (P08684 whole entry): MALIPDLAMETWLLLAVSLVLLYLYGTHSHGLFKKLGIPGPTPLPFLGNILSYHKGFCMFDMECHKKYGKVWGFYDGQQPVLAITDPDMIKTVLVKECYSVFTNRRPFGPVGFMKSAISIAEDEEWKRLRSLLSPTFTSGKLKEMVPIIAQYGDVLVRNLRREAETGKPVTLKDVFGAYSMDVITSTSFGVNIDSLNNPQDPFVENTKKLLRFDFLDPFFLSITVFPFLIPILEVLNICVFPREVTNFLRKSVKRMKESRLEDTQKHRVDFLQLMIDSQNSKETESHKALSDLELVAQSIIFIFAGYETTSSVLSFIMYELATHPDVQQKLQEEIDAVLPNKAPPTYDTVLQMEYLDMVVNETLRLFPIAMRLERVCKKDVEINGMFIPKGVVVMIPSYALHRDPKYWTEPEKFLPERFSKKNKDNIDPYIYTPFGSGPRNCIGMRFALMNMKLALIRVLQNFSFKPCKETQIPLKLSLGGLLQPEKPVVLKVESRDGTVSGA

[4] = Mycobacterium tuberculosis, ERDMAN

NNC(=O)c1ccncc1 [INH, isoniazid]
surviving Mtb katG^FS after 13 days of treatment (Mtb katG^FS): 8.09 × 10^8 CFU/mL

C[C@H](N[C@@H](CCc1ccccc1)C(=O)O)C(=O)N1CCC[C@H]1C(=O)O [enalaprilat]
Papp of enalaprilat for a tight monolayer (Caco-2 cells): < 1 × 10^–6 cm/s

O=C(O)C1CSc2c(C3CC3)c(-c3cc(-c4ccc5ccccc5c4)no3)cc(=O)n21 (racemic) [Compound 17h, (±) 8-Cyclopropyl-7-(3-(naphthalen-2-yl)isoxazol-5-yl)-5-oxo-2,3-dihydro-5H-thiazolo[3,2-a]pyridine-3-carboxylic Acid]
Calu-3 LD50 (Calu-3 cells): >250 µM | Therapeutic index, LD50 in Calu-3 / MABA IC50 (Calu-3 cells): >355 | IC50 [1, 4]: 0.703 µM | IC50 [1]: 0.7 ± 0.05 µM | HEK 293 LD50 (HEK 293): 101.6 µM | Therapeutic index, LD50 in HEK 293 / MABA IC50 (HEK 293): 144.5 | cytotoxicity for uninfected murine RAW 264.7 macrophages [2]: not cytotoxic | inhibition of OD600 of Mtb cultures in the presence of tyloxapol (Mtb Erdman): neither 17h nor 17j inhibited the OD600 of Mtb cultures | Mtb katG^FS CFU after 13 days, combination with INH (Mtb katG^FS): below the input dose | Mtb katG^FS CFU after 13 days, compound alone vs control (Mtb katG^FS): no difference in CFU | BEAS-2B LD50 (BEAS-2B): 143.1 µM | Therapeutic index, LD50 in BEAS-2B / MABA IC50 (BEAS-2B): 203.5 | inhibition of intracellular Mtb replication in macrophages [3]: inhibited intracellular mycobacteria at concentrations lower than C10 | IC50 (Mtb biofilm formation): 3.47 ± 1.21 µM | IMR-90 LD50 (IMR-90): 122.5 µM

CC(C)(C)c1ccc(-n2cc(-c3cc(=O)n4c(c3C3CC3)SCC4C(=O)O)nn2)cc1 (racemic) [Compound 15d, (±) 7-(1-(4-(tert-Butyl)phenyl)-1H-1,2,3-triazol-4-yl)-8-cyclopropyl-5-oxo-2,3-dihydro-5H-thiazolo[3,2-a]pyridine-3-carboxylic Acid]
IC50 [1, 4]: 5.67 ± 0.82 µM | IC50 (CYP2C9): 1 to 10 µM | % 4 OH-diclofenac activity (CYP2C9; 1 μM compound): 83 ± 4.6% | % 4 OH-diclofenac activity (CYP2C9; 10 μM compound): 32.9 ± 1.0% | % 4 OH-diclofenac activity (CYP2C9; 100 μM compound): 2.61 ± 0.29% | Papp A→B at 2 µM (in vitro): 0.88 ×10⁻⁶ cm/s | % 1OH-midazolam activity (CYP3A4; 1 μM compound): 102 ± 1.4% | % 6OH-testosterone activity (CYP3A4; 1 μM compound): 105 ± 1.0% | % 1OH-midazolam activity (CYP3A4; 10 μM compound): 95 ± 2.7% | % 6OH-testosterone activity (CYP3A4; 10 μM compound): 101 ± 3.9% | % 1OH-midazolam activity (CYP3A4; 100 μM compound): 67 ± 1.5% | % 6OH-testosterone activity (CYP3A4; 100 μM compound): 75 ± 1.9%

O=C(O)C1CSc2c(C3CC3)c(Cc3cccc4ccccc34)cc(=O)n21 (centres unmarked) [Compound C10, reference compound]
Calu-3 LD50 (Calu-3 cells): 160.4 µM | Therapeutic index, LD50 in Calu-3 / MABA IC50 (Calu-3 cells): 11.1 | IC50 [1, 4]: 14.4 µM | IC50 [1]: 14.4 µM | HEK 293 LD50 (HEK 293): 151.7 µM | Therapeutic index, LD50 in HEK 293 / MABA IC50 (HEK 293): 10.5 | cytotoxicity for uninfected murine RAW 264.7 macrophages [2]: not cytotoxic | Mtb katG^FS CFU after 13 days, combination with INH (Mtb katG^FS): did not inhibit the survival of Mtb katG^FS beyond the effect of INH alone | Mtb katG^FS CFU after 13 days, compound alone vs control (Mtb katG^FS): no difference in CFU | BEAS-2B LD50 (BEAS-2B): 146.2 µM | Therapeutic index, LD50 in BEAS-2B / MABA IC50 (BEAS-2B): 10.1 | IC50 (Mtb biofilm formation): 8.28 ± 3.23 µM | IMR-90 LD50 (IMR-90): 147.1 µM | Therapeutic index, LD50 in IMR-90 / MABA IC50 (IMR-90; 48 h treatment, MTT assay): 10.1

CC(C)(C)c1ccc(-c2nnc(SCc3cc(=O)n4c(c3C3CC3)SCC4C(=O)O)o2)cc1 (racemic) [Compound 8f, (±) 7-(((5-(4-(tert-Butyl)phenyl)-1,3,4-oxadiazol-2-yl)thio)methyl)-8-cyclopropyl-5-oxo-2,3-dihydro-5H-thiazolo[3,2-a]pyridine-3-carboxylic Acid]
IC50 [1, 4]: 6.2 µM | IC50 [1]: 6.19 ± 0.67 µM | IC50 (CYP2C9): 10 to 100 µM | % 4 OH-diclofenac activity (CYP2C9; 1 μM compound): 100 ± 2.7% | % 4 OH-diclofenac activity (CYP2C9; 10 μM compound): 93 ± 6.7% | % 4 OH-diclofenac activity (CYP2C9; 100 μM compound): 31 ± 3.6% | Papp A→B (in vitro): 3.3 ×10⁻⁶ cm/s | % 1OH-midazolam activity (CYP3A4; 1 μM compound): 108 ± 4.1% | % 6OH-testosterone activity (CYP3A4; 1 μM compound): 98 ± 4.0% | % 1OH-midazolam activity (CYP3A4; 10 μM compound): 117 ± 1.4% | % 6OH-testosterone activity (CYP3A4; 10 μM compound): 94 ± 5.8% | % 1OH-midazolam activity (CYP3A4; 100 μM compound): 84 ± 5.0% | % 6OH-testosterone activity (CYP3A4; 100 μM compound): 60 ± 1.9%
